Experimental data published in ChEMBL document CHEMBL1126380, “New aza(nor)adamantanes are agonists at the newly identified serotonin 5-HT4 receptor and antagonists at the 5-HT3 receptor” (Bioorg Med Chem Lett, 1992).

Columns and labels:
[1] = molecular target: 5-hydroxytryptamine receptor 4 (Rattus norvegicus, UniProt Q62758); experiment: Compound was evaluated for the agonistic activity towards 5-hydroxytryptamine 4 receptor using the rat tunica muscularis mucosae (TMM) esophagus strip assay; type: functional, tissue-based, Muscularis mucosa
Chain of 5-hydroxytryptamine receptor 4 (Q62758 whole entry): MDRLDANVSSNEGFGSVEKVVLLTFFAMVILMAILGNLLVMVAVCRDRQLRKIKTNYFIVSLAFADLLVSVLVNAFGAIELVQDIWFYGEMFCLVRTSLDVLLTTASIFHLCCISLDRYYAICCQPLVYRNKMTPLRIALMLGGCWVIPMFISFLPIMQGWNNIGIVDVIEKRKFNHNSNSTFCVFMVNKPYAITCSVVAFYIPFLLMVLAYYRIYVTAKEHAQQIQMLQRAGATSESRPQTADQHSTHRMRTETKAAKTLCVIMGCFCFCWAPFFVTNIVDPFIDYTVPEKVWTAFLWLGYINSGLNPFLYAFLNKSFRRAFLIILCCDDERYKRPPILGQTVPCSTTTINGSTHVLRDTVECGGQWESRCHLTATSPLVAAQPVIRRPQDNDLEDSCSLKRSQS

Rattus norvegicus = experiment: Minimum effective dose(ip) required for inhibition of serotonin-induced bradycardic response in the Bezold-Jarisch reflex functional model; details: for minimal effective dose: Rattus norvegicus, ip, read-out: MED
[2] = molecular target: T1, 5-hydroxytryptamine receptor 3A (Rattus norvegicus, UniProt P35563); experiment: Compound was evaluated […] for the antagonistic activity towards 5-hydroxytryptamine 3 receptor; type: functional
T1 sequence (P35563 whole entry): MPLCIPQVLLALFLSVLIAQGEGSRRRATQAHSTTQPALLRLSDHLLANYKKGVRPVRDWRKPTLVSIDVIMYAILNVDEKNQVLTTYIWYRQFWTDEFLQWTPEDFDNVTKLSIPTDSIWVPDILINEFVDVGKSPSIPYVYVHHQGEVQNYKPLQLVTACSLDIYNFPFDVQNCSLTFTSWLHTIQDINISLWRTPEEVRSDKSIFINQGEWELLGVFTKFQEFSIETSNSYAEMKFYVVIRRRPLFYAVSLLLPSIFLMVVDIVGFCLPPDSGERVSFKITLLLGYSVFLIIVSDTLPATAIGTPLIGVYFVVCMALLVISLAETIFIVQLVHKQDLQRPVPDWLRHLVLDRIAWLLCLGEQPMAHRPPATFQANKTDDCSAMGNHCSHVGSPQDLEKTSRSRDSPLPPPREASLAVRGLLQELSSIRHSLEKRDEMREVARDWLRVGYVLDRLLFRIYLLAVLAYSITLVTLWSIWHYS

Structure (SMILES)	EC50 [1] [nM]	Ki [2] [nM]	minimal effective dose (Rattus norvegicus) [mg/kg]	MED (Rattus norvegicus) [mg/kg]
COc1cc(N)c(Cl)cc1C(=O)N[C@H]1C2CC3CN(C2)CC31 (some centres undefined)	3870	3.9	0.01	
COc1cc(N)c(Cl)cc1C(=O)N[C@@H]1C2CC3CN(C2)CC31 (some centres undefined)	51.3	1.2	0.01	
COc1cc(N)c(Cl)cc1C(=O)N[C@@H]1CN2CCC1CC2	203	0.23	0.3	
COc1cc(N)c(Cl)cc1C(=O)N[C@@H]1CCN(CCCOc2ccc(F)cc2)C[C@@H]1OC [CISAPRIDE]			5	
COc1cc(N)c(Cl)cc1C(=O)NC1CCN2CCCC1C2 (centres undefined) [RENZAPRIDE]	98	5.6	0.25	

Second part, led by results:

EC50 [1] [nM]	Ki [2] [nM]	Structure (SMILES)	minimal effective dose (Rattus norvegicus) [mg/kg]	MED (Rattus norvegicus) [mg/kg]
262	9	COc1cc(N)c(Cl)cc1C(=O)NC1C2CC3CC1CN(C3)C2 (stereo in doubt)		0.03
538	336	COc1cc(N)c(Cl)cc1C(=O)NC1C2CC3CC1CN(C3)C2 (stereo in doubt; 1A)		10
